# According to PMC8633983, “GTP binding to translation factor eIF2B stimulates its guanine nucleotide exchange activity” (iScience, 2021):
# Molecular target: T1, eIF2Bγ (in eIF2B complex) (Saccharomyces cerevisiae, UniProt P09032)
# T1 construct: gene GCD1; purified eIF2B complex; with eIF2Bε (GCD6) and the other eIF2B subunits
# Experiment: competition filter binding against […]-GTP
# T1 sequence (P09032 whole entry): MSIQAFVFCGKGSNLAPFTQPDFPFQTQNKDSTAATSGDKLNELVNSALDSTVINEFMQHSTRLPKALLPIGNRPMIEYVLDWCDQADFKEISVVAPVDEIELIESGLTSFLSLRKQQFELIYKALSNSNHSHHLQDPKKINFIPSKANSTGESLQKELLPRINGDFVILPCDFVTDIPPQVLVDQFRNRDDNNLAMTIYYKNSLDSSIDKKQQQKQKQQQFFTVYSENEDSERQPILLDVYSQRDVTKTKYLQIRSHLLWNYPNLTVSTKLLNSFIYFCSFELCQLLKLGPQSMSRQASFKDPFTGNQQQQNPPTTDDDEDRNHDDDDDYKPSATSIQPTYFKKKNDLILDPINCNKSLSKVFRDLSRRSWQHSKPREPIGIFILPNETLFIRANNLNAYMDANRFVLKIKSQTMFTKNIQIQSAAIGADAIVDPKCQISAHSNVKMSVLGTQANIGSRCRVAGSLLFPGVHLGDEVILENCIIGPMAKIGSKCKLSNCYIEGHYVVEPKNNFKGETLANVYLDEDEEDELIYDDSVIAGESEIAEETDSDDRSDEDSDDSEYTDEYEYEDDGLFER
# T1 sequence (P32501 whole entry partner): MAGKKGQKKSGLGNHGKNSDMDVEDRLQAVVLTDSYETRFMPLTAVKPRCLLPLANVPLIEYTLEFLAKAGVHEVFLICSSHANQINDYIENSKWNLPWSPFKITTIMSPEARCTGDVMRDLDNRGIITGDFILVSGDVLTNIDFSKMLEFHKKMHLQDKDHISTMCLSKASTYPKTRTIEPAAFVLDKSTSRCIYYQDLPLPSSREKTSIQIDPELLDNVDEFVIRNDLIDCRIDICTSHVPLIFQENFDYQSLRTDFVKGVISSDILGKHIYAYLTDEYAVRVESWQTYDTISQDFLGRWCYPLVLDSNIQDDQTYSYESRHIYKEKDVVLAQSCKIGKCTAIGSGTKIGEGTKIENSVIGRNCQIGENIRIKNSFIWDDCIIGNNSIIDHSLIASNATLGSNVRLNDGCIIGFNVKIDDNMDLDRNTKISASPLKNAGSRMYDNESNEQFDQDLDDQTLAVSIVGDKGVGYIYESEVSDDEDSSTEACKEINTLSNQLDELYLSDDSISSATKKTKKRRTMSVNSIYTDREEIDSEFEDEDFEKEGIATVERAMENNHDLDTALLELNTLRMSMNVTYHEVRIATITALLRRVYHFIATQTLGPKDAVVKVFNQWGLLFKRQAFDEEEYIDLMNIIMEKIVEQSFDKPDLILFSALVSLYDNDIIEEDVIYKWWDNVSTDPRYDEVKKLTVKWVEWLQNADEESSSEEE
# T1 sequence (P14741 2-305 partner): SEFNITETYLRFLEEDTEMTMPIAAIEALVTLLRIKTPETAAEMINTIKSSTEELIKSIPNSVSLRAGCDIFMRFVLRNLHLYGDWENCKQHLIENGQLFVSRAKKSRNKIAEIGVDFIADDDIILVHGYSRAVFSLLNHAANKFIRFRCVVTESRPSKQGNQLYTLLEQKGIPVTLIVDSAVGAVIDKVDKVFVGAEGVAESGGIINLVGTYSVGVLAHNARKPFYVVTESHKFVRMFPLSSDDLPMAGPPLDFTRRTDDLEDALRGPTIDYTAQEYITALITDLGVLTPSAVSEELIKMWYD
# T1 sequence (P32502 whole entry partner): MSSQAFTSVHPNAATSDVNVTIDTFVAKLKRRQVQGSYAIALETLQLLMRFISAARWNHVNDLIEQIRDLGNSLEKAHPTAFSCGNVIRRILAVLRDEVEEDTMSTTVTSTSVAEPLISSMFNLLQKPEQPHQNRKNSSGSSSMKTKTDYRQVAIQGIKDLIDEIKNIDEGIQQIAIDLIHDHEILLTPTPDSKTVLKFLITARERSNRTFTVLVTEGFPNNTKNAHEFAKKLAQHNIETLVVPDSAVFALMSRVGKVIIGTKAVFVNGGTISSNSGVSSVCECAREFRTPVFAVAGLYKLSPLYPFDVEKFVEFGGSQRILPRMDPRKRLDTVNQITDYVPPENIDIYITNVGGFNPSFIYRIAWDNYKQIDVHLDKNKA
# T1 sequence (P12754 2-651 partner): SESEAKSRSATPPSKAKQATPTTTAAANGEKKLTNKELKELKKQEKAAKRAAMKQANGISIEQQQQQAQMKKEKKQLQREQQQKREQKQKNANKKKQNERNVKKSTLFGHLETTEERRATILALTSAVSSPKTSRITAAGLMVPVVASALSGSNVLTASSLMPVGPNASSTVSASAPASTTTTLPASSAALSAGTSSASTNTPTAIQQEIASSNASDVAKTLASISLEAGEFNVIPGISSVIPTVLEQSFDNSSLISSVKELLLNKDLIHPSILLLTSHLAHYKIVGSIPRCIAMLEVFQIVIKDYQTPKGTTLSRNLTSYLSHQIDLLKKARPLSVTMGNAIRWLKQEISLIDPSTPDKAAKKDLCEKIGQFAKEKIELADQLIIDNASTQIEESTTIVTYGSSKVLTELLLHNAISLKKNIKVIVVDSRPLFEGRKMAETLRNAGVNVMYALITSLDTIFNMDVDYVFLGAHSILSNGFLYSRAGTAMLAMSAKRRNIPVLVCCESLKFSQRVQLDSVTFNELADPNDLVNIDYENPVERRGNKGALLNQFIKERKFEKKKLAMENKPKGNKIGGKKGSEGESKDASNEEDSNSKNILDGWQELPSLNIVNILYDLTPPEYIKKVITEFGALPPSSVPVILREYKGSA
row,Structure (SMILES),competition filter binding against 32P-GTP
1,Nc1ncnc2c1ncn2[C@@H]1O[C@H](COP(=O)(O)OP(=O)(O)OP(=O)(O)O)[C@@H](O)[C@H]1O [ATP],"suggesting eIF2B can bind both ATP and GTP, but with a preference for GTP"
2,Nc1nc2c(ncn2[C@@H]2O[C@H](COP(=O)(O)OP(=O)(O)O)[C@@H](O)[C@H]2O)c(=O)[nH]1 [GDP],GTP was a more effective competitor than ATP or GDP
